Measured values: ChEMBL document CHEMBL1201862, “PubChem BioAssay data set” (2004)
The source made the active and inactive calls.

Legend:
[1] = biological target: T1, Heat shock factor protein 1 (Mus musculus, UniProt P38532); experiment: decrease of HSF1-responsive luciferase luminescence – cell-based, NIH3T3, dose retest, confirmation (AID 2382); assay type: functional;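 further: NIH3T3 fibroblasts with HSF1-driven luciferase reporter stressed by proteasome inhibitor MG132; luminescence from HSF1-driven luciferase expression after 8 hours of MG132 stress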
T1 sequence (P38532 whole entry): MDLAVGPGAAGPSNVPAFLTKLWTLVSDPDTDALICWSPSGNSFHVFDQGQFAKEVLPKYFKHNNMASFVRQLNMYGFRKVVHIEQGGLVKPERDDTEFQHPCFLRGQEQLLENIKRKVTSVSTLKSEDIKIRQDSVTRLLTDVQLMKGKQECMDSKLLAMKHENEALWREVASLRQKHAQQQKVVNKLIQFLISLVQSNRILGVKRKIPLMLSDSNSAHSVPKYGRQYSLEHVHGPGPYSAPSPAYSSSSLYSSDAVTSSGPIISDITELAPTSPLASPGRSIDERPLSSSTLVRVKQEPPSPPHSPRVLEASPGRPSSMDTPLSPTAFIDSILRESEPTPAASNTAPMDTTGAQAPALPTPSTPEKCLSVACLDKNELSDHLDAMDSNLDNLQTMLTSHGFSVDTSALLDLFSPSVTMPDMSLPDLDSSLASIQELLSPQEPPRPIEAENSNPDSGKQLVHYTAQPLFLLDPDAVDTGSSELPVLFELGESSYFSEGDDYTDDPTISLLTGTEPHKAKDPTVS

[2] = Trypanosoma cruzi growth suppression in host cells – NIH3T3 host cells, beta-gal luminescence, confirmation (AID 2044); assay type: functional, cell-based;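 further: intracellular parasites grown in NIH/3T3 mouse fibroblasts as host cells; luminescent beta-galactosidase reporter signal from transgenic T. cruzi replicating inside host cells; inhibitors lower the luminescence signal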
[3] = microbe, parasite or virus in culture; assay type: functional; details: Mycobacterium tuberculosis
[4] = NIH3T3 cell viability loss – ATP luminescence, mouse fibroblasts, counter-screen, dose response (AID 2010); assay type: functional, cell-based;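 further: cells exposed to compound for about 90 hours before reading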
[5] = biological target: Heat shock protein HSP 90-alpha (Homo sapiens, UniProt P07900); experiment: Luminescence-based dose response biochemical high throughput screening assay for inhibitors of the Heat Shock Protein 90 (HSP90). [Related pubchem assays: 1831 (Summary AID.), 1846 (Confirmation screen.), 1789 (Primary screen.)]
[6] = THP-1 cell cytotoxicity, dose response, cytotoxicity control for non-replicating M. tuberculosis project (AID 489025); assay type: functional
[7] = cells; assay type: functional
[8] = HIV-1 Vif–A3G interaction blockers – biochemical, TR-FRET, GST-Vif 1-94, biotin-A3G peptide, dose response retest, primary screen (AID 1117319); assay type: functional;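 further: TR-FRET signal of purified GST-Vif binding a biotinylated A3G peptide; inhibitors lower the FRET signal by blocking Vif and A3G binding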
[9] = viability loss in Vero cells – cytotoxicity control for Vif-APOBEC3G degradation inhibitor project, dose response (AID 1117358); assay type: functional; details: Vero
[10] = biological target: T2, Low molecular weight phosphotyrosine protein phosphatase (Homo sapiens, UniProt P24666); experiment: inhibition of LMPTP-A enzymatic activity – biochemical, OMFP substrate, fluorescence intensity, set 2, dose response (AID 743307); assay type: functional
T2 sequence (P24666 whole entry): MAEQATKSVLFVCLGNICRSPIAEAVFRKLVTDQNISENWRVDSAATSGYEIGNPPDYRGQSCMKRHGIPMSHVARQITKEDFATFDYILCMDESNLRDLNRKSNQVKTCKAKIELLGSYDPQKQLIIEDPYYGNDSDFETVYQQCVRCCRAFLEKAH

[11] = biological target: T2, Low molecular weight phosphotyrosine protein phosphatase; experiment: inhibition of human LMPTP enzyme activity – biochemical, absorbance, pNPP substrate, LMPTP-A isoform, set 2, orthogonal assay, dose response (AID 743308); assay type: functional
[12] = cells; assay type: functional, cell-based
[13] = cells; assay type: functional, cell-based; remark: listed apart in the source
[14] = biological target: Protein Tat (Human immunodeficiency virus type 1 group M subtype B (isolate HXB2)(HIV-1), UniProt P04608); assay type: functional;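 further: tat binding to TAR RNA read out by fluorescence polarization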
Sequence of Protein Tat (P04608 whole entry): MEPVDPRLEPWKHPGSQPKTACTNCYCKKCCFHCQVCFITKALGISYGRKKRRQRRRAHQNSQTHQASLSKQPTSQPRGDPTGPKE

[15] = biological target: T3, NADPH oxidase 1 (Homo sapiens, UniProt Q9Y5S8); experiment: Late-stage luminescence-based cell-based dose response assay to identify inhibitors of NADPH oxidase 1 (NOX1): Synthesized analogs.; assay type: functional
T3 sequence (Q9Y5S8 whole entry): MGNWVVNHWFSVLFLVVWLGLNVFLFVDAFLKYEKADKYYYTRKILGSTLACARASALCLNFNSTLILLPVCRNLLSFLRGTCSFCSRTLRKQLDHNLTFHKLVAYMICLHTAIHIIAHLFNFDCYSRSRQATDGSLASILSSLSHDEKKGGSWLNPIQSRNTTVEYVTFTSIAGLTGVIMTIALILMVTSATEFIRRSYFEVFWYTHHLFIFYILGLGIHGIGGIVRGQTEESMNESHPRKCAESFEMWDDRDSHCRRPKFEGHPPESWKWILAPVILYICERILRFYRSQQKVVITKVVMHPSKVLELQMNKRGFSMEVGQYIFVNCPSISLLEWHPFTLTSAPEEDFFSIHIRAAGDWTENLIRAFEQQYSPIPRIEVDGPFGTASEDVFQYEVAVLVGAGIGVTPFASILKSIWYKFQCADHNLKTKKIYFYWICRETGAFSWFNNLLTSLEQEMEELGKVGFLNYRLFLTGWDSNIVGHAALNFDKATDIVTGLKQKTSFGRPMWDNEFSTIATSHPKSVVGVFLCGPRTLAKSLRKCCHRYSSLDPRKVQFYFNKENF

[16] = biological target: Mitogen-activated protein kinase 10 (Homo sapiens, UniProt P53779); experiment: Dose response biochemical screening assay for inhibitors of c-Jun N-Terminal Kinase 3 (JNK3). [Related pubchem assays: 746 ]
Sequence of Mitogen-activated protein kinase 10 (P53779 whole entry): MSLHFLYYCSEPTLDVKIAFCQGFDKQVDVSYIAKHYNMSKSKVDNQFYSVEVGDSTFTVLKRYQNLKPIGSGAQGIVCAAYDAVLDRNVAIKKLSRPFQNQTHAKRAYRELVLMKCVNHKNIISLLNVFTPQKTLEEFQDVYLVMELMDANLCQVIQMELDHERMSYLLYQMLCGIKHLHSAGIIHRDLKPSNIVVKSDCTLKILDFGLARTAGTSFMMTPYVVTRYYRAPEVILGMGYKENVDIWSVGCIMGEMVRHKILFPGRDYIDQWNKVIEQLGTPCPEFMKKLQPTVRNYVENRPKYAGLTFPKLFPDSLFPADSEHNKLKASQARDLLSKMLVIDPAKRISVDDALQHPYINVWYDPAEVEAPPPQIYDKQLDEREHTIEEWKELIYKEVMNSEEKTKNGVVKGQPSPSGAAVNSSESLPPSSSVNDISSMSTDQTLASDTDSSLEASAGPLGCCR

[17] = biological target: T4, Aminopeptidase N (Plasmodium falciparum FcB1/Columbia, UniProt O96935); experiment: malaria alanyl aminopeptidase activity blockers – biochemical, fluorogenic H-Leu-NHMec substrate, 1536-well (AID 1445); design: species or system Plasmodium falciparum 3D7, 3D7
T4 sequence (O96935 whole entry): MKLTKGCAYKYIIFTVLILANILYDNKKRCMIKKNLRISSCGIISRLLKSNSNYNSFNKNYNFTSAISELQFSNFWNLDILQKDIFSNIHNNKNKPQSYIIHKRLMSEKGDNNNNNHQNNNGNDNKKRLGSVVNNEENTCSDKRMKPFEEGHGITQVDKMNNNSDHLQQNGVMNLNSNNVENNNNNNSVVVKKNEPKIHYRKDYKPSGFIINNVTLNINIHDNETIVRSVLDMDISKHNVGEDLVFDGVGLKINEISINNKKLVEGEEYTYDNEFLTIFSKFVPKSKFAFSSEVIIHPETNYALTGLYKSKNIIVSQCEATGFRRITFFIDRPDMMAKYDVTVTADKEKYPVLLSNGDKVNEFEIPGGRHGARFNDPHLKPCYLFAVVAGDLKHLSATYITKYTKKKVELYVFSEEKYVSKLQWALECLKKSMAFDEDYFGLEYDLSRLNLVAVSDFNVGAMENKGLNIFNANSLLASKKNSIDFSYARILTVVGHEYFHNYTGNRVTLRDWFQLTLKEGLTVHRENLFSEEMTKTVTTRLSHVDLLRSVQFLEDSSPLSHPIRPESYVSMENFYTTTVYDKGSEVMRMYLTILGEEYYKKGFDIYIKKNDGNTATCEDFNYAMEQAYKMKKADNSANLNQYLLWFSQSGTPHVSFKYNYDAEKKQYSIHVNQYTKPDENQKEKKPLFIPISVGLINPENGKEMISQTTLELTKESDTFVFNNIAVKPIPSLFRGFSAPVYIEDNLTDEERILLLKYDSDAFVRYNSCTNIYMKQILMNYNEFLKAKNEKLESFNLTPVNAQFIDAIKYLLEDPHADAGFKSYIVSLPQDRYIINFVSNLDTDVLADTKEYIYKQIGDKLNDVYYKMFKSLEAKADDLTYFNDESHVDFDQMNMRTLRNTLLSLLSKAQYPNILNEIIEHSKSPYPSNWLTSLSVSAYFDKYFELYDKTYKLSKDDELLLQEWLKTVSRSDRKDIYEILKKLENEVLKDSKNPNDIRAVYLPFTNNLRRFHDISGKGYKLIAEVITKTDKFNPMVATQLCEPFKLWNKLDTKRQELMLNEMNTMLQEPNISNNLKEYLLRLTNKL

[18] = biological target: Large T antigen (Simian virus 40, UniProt P03070); assay type: functional, Betapolyomavirus macacae;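 further: Confirmatory-stage PubChem screen for compounds that inhibit SV40 T antigen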
Sequence of Large T antigen (P03070 whole entry): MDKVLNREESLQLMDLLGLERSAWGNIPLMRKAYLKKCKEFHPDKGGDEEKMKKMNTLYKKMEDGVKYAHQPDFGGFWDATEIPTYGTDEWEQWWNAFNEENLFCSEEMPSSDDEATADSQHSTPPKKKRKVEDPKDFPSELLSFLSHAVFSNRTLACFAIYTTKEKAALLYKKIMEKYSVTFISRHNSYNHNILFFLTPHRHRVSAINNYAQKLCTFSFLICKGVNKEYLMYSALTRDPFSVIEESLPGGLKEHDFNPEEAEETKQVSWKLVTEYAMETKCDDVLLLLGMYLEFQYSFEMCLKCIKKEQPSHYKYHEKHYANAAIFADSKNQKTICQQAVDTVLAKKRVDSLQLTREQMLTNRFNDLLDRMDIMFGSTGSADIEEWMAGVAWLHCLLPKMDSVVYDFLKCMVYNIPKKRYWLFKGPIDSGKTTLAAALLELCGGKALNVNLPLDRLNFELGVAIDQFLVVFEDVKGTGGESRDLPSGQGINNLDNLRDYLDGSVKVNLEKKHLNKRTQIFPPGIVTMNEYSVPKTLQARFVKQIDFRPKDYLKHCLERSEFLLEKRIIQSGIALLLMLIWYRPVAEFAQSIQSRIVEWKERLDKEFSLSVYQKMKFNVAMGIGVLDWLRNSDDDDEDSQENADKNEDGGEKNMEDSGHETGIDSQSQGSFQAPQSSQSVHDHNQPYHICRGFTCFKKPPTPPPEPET

[19] = biological target: Nonstructural protein 1 (Influenza A virus, UniProt Q194T2); assay type: functional, Influenza A virus (A/California/07/2009(H1N1))
Sequence of Nonstructural protein 1 (Q194T2 whole entry): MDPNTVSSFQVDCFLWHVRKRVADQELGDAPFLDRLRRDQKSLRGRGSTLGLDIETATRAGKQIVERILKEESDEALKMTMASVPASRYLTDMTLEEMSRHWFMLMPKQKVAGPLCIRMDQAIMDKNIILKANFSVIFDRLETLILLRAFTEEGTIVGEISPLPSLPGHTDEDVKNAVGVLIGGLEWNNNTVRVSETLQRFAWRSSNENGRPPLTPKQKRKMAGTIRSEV

[20] = biological target: T5, Replicative DNA helicase DnaB (Mycobacterium tuberculosis, UniProt P9WMR3); experiment: DnaB intein splicing inhibitors, dose response, biochemical, cell-free fluorescence (AID 449749); assay type: functional
T5 sequence (P9WMR3 whole entry): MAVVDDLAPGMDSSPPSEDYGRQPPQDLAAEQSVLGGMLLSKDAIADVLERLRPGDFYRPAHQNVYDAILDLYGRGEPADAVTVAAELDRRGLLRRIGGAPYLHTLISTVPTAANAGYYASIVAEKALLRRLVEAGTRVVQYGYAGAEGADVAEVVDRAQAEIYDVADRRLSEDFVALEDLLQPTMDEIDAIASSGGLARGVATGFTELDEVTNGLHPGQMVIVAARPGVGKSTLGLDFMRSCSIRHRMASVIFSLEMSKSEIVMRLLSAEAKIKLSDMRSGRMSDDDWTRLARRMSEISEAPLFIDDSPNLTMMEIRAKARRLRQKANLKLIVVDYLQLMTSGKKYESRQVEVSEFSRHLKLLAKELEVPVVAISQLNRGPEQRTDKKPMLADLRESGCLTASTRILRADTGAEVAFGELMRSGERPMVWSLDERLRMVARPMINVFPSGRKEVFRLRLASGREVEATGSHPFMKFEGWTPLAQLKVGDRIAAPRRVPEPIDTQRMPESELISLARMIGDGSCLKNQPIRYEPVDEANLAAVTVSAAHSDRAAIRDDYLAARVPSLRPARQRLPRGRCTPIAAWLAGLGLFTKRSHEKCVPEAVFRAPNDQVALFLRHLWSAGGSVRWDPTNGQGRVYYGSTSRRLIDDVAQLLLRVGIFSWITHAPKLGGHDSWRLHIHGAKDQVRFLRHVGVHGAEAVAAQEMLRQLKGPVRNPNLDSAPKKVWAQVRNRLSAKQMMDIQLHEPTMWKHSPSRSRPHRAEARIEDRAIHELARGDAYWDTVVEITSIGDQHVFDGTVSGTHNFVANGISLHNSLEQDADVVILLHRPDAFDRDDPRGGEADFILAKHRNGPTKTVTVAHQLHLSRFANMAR

[21] = biological target: T6, Protein RecA (Mycobacterium tuberculosis, UniProt P9WHJ3); experiment: Fluorescence Cell-Free Homogeneous Dose Retest to Identify Inhibitors of RecA-Intein Splicing Activity. [Related pubchem assays (depositor defined):AID2097, AID2223, AID489010, AID492950]; assay type: functional
T6 sequence (P9WHJ3 whole entry): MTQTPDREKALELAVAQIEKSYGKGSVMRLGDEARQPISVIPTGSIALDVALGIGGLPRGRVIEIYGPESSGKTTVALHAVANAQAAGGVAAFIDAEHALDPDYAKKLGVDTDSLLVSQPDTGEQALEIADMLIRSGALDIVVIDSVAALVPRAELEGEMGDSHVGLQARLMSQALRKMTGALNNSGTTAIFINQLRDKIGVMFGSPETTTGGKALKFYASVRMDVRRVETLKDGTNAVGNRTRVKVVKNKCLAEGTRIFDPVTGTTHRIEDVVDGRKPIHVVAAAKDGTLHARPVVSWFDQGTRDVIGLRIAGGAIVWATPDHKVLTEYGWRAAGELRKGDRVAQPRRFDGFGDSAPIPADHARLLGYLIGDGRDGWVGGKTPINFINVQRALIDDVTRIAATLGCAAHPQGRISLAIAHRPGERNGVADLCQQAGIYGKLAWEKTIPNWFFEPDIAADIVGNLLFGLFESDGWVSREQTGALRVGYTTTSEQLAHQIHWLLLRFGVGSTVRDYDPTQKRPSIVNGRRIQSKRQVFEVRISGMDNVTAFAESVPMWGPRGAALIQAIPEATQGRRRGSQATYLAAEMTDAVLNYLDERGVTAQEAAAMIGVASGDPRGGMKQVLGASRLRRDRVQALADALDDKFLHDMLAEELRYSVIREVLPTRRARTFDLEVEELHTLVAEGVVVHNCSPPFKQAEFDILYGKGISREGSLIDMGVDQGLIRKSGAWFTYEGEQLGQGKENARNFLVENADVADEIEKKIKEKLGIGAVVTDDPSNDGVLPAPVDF

[22] = biological target: 26S proteasome non-ATPase regulatory subunit 14 (Homo sapiens, UniProt O00487); experiment: inhibition of proteasome subunit RPN11 – biochemical, fluorescence polarization, uHTS hits, confirmation (AID 602368); assay type: functional
Sequence of 26S proteasome non-ATPase regulatory subunit 14 (O00487 whole entry): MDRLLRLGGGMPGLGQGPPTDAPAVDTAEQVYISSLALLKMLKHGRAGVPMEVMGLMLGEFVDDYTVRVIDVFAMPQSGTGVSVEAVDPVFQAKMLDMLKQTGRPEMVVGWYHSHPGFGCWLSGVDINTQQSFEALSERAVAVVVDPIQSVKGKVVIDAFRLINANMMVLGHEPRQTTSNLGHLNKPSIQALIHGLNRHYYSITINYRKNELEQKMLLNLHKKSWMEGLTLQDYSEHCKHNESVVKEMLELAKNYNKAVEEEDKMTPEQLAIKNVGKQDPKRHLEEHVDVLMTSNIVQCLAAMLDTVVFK

[23] = biological target: 72 kDa type IV collagenase (Homo sapiens, UniProt P08253); experiment: Dose Response validation of uHTS RPN11 inhibitor hits using a MMP-2 Fluorescence assay.; assay type: functional
Sequence of 72 kDa type IV collagenase (P08253 whole entry): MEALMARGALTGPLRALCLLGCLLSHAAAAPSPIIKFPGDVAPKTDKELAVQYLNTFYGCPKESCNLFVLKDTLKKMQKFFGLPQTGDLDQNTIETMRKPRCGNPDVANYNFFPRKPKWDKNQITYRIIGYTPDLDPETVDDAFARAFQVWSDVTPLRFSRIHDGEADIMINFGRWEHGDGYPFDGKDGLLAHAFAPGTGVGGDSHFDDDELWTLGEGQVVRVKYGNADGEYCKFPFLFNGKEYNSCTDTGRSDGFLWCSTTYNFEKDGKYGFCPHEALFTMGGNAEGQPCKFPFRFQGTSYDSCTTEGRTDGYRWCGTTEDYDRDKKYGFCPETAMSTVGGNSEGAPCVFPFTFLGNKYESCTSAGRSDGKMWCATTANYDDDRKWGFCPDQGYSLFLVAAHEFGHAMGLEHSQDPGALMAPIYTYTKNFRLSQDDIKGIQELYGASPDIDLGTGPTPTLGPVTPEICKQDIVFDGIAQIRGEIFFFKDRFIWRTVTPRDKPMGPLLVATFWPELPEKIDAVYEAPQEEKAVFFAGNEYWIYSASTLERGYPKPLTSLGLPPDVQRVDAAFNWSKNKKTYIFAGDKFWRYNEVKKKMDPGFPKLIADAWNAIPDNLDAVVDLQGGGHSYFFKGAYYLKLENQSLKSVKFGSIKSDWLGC

[24] = biological target: Prothrombin (Bos taurus, UniProt P00735); experiment: thrombin protease inhibitors – biochemical, fluorescence polarization, uHTS hits, dose response (AID 602369); assay type: functional
[25] = biological target: Matrix metalloproteinase-14 (Homo sapiens, UniProt P50281); experiment: Dose Response confirmation of uHTS hits for a small molecule inhibitors of MT1-MMP activation in a fluorescence assay set 1.; assay type: functional
[26] = viability loss in THP-1 monocytes – THP-1 cells, cytotoxicity control for Vif-APOBEC3G degradation inhibitor project, dose response (AID 1117359); assay type: functional; details: THP-1

COc1cccc(-c2cc3nc4c(c(NCC(C)(C)CN(C)C)n3n2)CCCC4)c1
EC50 [1]: 0.775 µM (active)
EC50 [2]: 0.487 µM (active)
CC50 [3]: 34.2 µM (active)
EC50 [4]: > 60 µM (not active)
IC50 [5]: 2.39 µM (active)
CC50 [6]: 28.9 µM (active)
IC50 [7]: 19.2 µM (active)

CCCNC(=O)c1ccc2c(c1)C1C3CCC(C3)C1C(c1ccccc1)N2 (stereo unspecified)
IC50 [8]: > 100 µM (active)
CC50 [9]: > 40 µM (active)

Cc1ccc2nc(-c3ccccc3)cc(NCCCN3CCCCC3)c2c1
IC50 [10]: > 80 µM (inactive)
IC50 [11]: > 80 µM (inactive)

COC(=O)/C(=C(/F)SCC(C)=O)C(F)(F)F
EC50 [12]: > 350 µM (not active)
EC50 [13]: > 350 µM (not active)
IC50 [14]: > 100 µM (active)

CC(=NNC(=O)c1ccc(O)cc1)c1ccc2c(c1)Nc1ccccc1S2
IC50 [15]: 0.382 µM (active)

COc1ccc(CC(=O)Nc2nc(C)cs2)cc1OC
IC50 [16]: 27.9 µM (not active)

CCN(CC)c1ccc(/C=C2\C(=O)N(c3nnc(C)c(O)n3)N=C2C)cc1
IC50 [17]: 42.6 µM (active)
IC50 [18]: 54.1 µM (active)
IC50 [19]: 12.6 µM (active)
AC50 [20]: 6.6 µM (active)
EC50 [21]: 2.08 µM (active)
IC50 [22]: 49.4 µM (active)
IC50 [23]: 96 µM (active)
IC50 [24]: 49.9 µM (active)
IC50 [25]: 32.8 µM (inactive)
CC50 [26]: 25.6 µM (active)
